{"source": "patent US12076394B2", "about": "“Cytosolic delivery of peptides using protein transduction domain mimics” (University of Massachusetts, priority 2020, dated 2024)", "key": {"[1]": {"system": "bone marrow derived dendritic cells", "assay": "Delivery into bone marrow derived dendritic cells, flow cytometry", "assay_type": "cell-based, mouse", "settings": "1 μM antigen, free or with PTDM at 1:10, 4 hours", "procedure": "To test SIINFEKL delivery and presentation for T cell activation, bone marrow derived dendritic cells were differentiated from B56 mouse bone marrow for 6 days in the presence of 20 ng/mL mouse GM-CSF. After 6 days, cells were harvested and treated with 1 μM fluorescently labeled SIINFEKL or OVA both free and in complex with PTDM molar ratio of 1:10 for 4 hours.\nImmature dendritic cells were differentiated from murine bone marrow according to established protocols. (Dewitte, et al. J. Control. Release 2014, 195, 138-146.) RBCs were lysed using BioLegend® lysis buffer and cells were plated at a density of 2×10^5 cells/mL in complete RPMI (listed under cell lines) with the addition of 20 ng/mL recombinant mouse GM-CSF. Cells were cultured for 6 days with the addition of 10 mL fresh media and cytokines on day 3. Non-adherent and loosely adherent cells were harvested on day 6 and cells were pelleted, counted, and plated at a density of 2×10^6 cells/mL.\nTHP-1 monocytes, immature dendritic cells, and bone marrow derived dendritic cells were analyzed using a BD LSR Fortessa 20X flow cytometer with five lasers and 18 channels. […] Only cells negative for 7-AAD were assessed for either uptake or presentation of markers. Multi-color flow cytometric analysis spectral overlap was corrected by appropriate compensation and analyzed using FlowJo 10.2 (v3.05470) by Tree Star, Ashland, OR, USA."}, "whole blood [2]": {"system": "whole blood", "assay": "Delivery of FAM labeled SIINFEKL into whole blood (time and concentration survey), flow cytometry", "assay_type": "cell-based, human", "settings": "molar ratio 1:10; 15, 30, 45 or 60 minutes; free peptide 60 minutes", "procedure": "The specificity of the polymer-antigen complex uptake by monocytes was tested in whole blood. FAM (Fluorescein Amidites) labeled SIIFNEKL was delivered into whole blood using Me-Ph10-b-dG5 at a molar ratio of 1:10, for 15, 30, 45, or 60 minutes to investigate the kinetics of uptake. MFI and uptake in monocytes were not statistically different regardless of the incubation time. Additionally, complex uptake was compared with free SIINFEKL-FAM allowed to incubate with whole blood for 60 minutes.\nFAM labeled SIINFEKL was delivered into whole blood using Me-Ph10-b-dG5 at a molar ratio of 1:10 at increasing peptide concentrations (0.25, 0.5, 1, and 2 μM).\nAfter incubation, cells were pelleted at 200 g for 5 minutes and the supernatant was removed. Red blood cells were lysed in using BD Pharm lysis buffer and subsequently washed with 1% FBS in PBS twice before staining with antibodies. Unspecific binding was blocked for 10 minutes using human or mouse IgG respectively. Antibody surface staining was performed using Human CD14-APC, CD4O-PE, CD80-AF488, CD86-BV711, CD209-APC, HLA-DR-APC-Cy7, or mouse CD11c-AF488, CD86-AF647, HLA-DR, H-2K^b-PE as indicated by manufacturer (BD® or BioLegend®). […]"}, "whole blood [3]": {"system": "whole blood", "assay": "Inflammatory cytokine panel (cytometric bead array) after co-delivery of SIINFEKL and CpG into whole blood", "settings": "24 hours after 60-minute treatment", "method": "(§1) A multi-analyte inflammatory cytokine panel was used to understand the immune response when CpG was added to the complexes. GpC, a nonfunctional analogue of CpG, was included as a negative control to preclude the role of nonspecific TLR9 activation during incubation. At 24 hours, following the 60-minute treatment with the non-covalent polymer-[sequence]-CpG complexes, supernatants from whole blood were tested the inflammatory cytokines: IL-1β, IFN-α, IFN-γ, TNF-α, MCP-1, IL-6, IL-8, IL-10, IL-12p70, IL-17A, IL-18, IL-23, and IL-33.\n(§2) Whole human blood was obtained from healthy volunteers under signed consent in Roche Vacutainers containing hirudin. In all cases, blood was used within 10 minutes of the tapping from the donor. The blood was distributed into Eppendorf tubes containing preassembled polymer preparations in RPMI 1640 with no supplements and incubated up to 1 hour at 37° C. on rotation (60 RPM). In general, 400 μL of blood was combined with 100 μL of polymer complex prepared in RPMI 1640 for a final volume of 500 μL.\n(§3) After one hour of incubation with treatment as reported under cell preparation and culture, cells were pelleted at 400 g for 2 minutes and supernatant was removed. […] Cytokine production was detected using the human inflammation cytometric bead array Legendplex™ from BioLegend® (740118)."}, "whole blood [4]": {"system": "whole blood", "method": "as §1, §2, §3"}}, "note": "Read-outs that look alike come from different tables or passages of the source. Where no end group is shown, it is not given here. FAM = Fluorescein Amidites label", "data": [{"compound": "OVA: ovalbumin protein, fluorescently labeled, free antigen", "values": [{"measurement": "uptake of fluorescently labeled SIINFEKL or OVA", "setting": "[1]", "value": "significantly less uptake"}]}, {"compound": "SIINFEKL-FAM: FAM (Fluorescein Amidites) labeled SIINFEKL, free peptide (SIINFEKL-{FAM})", "values": [{"measurement": "uptake of FAM labeled SIINFEKL by leukocytes, time survey", "setting": "whole blood [2]", "value": "not readily taken up"}]}, {"compound": "CC[C@H](C)[C@H](NC(=O)[C@@H](NC(=O)[C@@H](N)CO)[C@@H](C)CC)C(=O)N[C@@H](CC(N)=O)C(=O)N[C@@H](Cc1ccccc1)C(=O)N[C@@H](CCC(=O)O)C(=O)N[C@@H](CCCCN)C(=O)N[C@@H](CC(C)C)C(=O)O", "note": "[SIINFEKL]", "values": [{"measurement": "inflammatory cytokine response, in words", "setting": "whole blood [3]", "value": "no increase in inflammatory response"}]}, {"compound": "Me-Ph10-b-dG5 [PTDM]", "values": [{"measurement": "inflammatory cytokine response, in words", "setting": "whole blood [4]", "value": "did not induce the production of inflammatory cytokines"}]}]}
